Where a name gives a salt, the structure may show the parent alone. Blank lines part the entries; values can stand above or below the molecule they belong to.
Tests used:
[1] = Compatibility of absorption enhancers with Cu2+ and Cu+ salts (dissolution in aqueous medium); format: physicochemical; conditions: absorption enhancer 10 mg/ml
Description: Various absorption enhancers were screened regarding their compatibility with the trace element copper in the two main oxidation states as Cu^2+ and Cu^+.

[2] = In vitro compatibility of absorption enhancers with zinc sulfate (Example 16); format: physicochemical; conditions: absorption enhancer 10 mg/ml with desmopressin acetate and ZnSO4 5 mg/ml, in 2 ml aqua purificata, visual examination
Experimental: Solid dry powder mixtures of desmopressin acetate, zinc sulfate and different absorption enhancers were prepared and dissolved in 2 ml aqua purificata.

[3] = Human growth hormone formulation, pharmacokinetics after s.c. or ileum administration (Example 13); format: in vivo, Sprague Dawley rats
Experimental: The human growth hormone plasma concentrations were determined using commercial growth hormone sensitive human ELISA kit (Biovendor, EU, cat. number RMEE022).

[4] = Vancomycin pharmacokinetics after i.v. or ileum administration (Example 5); format: in vivo, Sprague Dawley rats; conditions: for AUC(0-t) / Cmax: anesthetized rats
Experimental: The vancomycin plasma concentrations were determined on biochemical autoanalyser Hitachi 912 using commercial vancomycin kit VANC2 (Roche Diagnostics GmbH, Germany). The absolute bioavailability (F) was calculated using equation F (%)=(AUCileum/AUCi.v.)×(Dosei.v./Doseileum)×100.

[5] = background statement, unformulated drug; cited from earlier work
[6] = Plasma liraglutide levels after mid-jejunum administration (Example 6, FIG. 1); format: in vivo, Sprague Dawley rats
Experimental: FIG. 1: Plasma liraglutide levels after intestinal (mid-jejunum) administration of different liraglutide formulations to rats (see Example 6).
Administration into Mid-Jejunum in Rats:
The wound margins were released from the base.
Dosing was performed slowly.
Correctness of the application was checked.
2.4 mg/kg of the polypeptide liraglutide were dosed into the mid-jejunum of anesthetized Sprague Dawley rats in the presence of the zwitter-ionic absorption enhancer lauroyl carnitine chloride (“LCC”) (20 mg/ml) with and without the addition of (i) the trace element CuSO4 (1 mg/ml) and the reducing agent sodium ascorbate (40 mg/ml) or (ii) the trace element ZnSO4 (1 mg/ml) and the reducing agent glutathione (40 mg/ml). All formulations further comprised Na2HPO4 to result in a neutral pH between 7 to 8.

[7] = Octreotide pharmacokinetics after s.c. or ileum administration (Example 9); format: in vivo, Sprague Dawley rats; conditions: for AUC(0-t): read-out: AUC(0-90) (converted)
Experimental: TRIS buffer was used to generate a neutral pH.
The octreotide plasma concentrations were determined using a commercial octreotide kit (AB Biolabs, USA, cat. number CEK 0110-01).

[8] = pH of dissolved solid powder mixtures (Example 17); format: physicochemical; conditions: lactose 50 mg, no buffer
[9] = CuSO4 1 mg/ml, sodium ascorbate 10 mg/ml
[10] = s.c. 1 ml/kg, 0.2 mg/ml human growth hormone, anaesthetized rats
[11] = Cu(I)Cl 1 mg/ml, sodium ascorbate 10 mg/ml
[12] = copper (I) acetate 1 mg/ml, sodium ascorbate 10 mg/ml
[13] = Sprague Dawley, rat, plasma, iv, vancomycin 5 mg/kg i.v.
[14] = Sprague Dawley, rat, plasma, vancomycin 20 mg/kg into ileum, lauroyl carnitine 50 mg/ml, CuSO4 1 mg/ml, sodium ascorbate 250 mg/ml
[15] = Sprague Dawley, rat, plasma, other: into distal small intestine (ileum), octreotide 0.92 mg/kg ileum (n = 8), lauroyl carnitine chloride 30 mg/ml, CuSO4 1 mg/ml, sodium ascorbate 30 mg/ml, TRIS 22.5 mg/ml
[16] = Sprague Dawley, rat, plasma, sc, octreotide 1 mg/kg s.c., anesthetized rats (n = 3)

- Dissolution in aqueous medium (2 ml) [1, 9]: Clear solution
- Dissolution in aqueous medium (2 ml) [2]: Clear solution
Molecule: CCCCCCCCO[C@@H]1O[C@H](CO)[C@@H](O)[C@H](O)[C@H]1O [n-Octyl-beta-D-glucopyranoside]

Molecule: O=C([O-])CC(O)(CC(=O)[O-])C(=O)[O-].[Na+].[Na+].[Na+] [Sodium citrate]
- Dissolution in aqueous medium (2 ml) [1, 9]: Clear solution

- Dissolution in aqueous medium (2 ml) [1, 9]: Clear solution
- Dissolution in aqueous medium (2 ml) [2]: Clear solution
Molecule: CCCCCCCCCCCCOS(=O)(=O)[O-].[Na+] [Sodium dodecyl sulfate]

- Dissolution in aqueous medium (2 ml) [1, 9]: Clear solution
- Dissolution in aqueous medium (2 ml) [2]: Clear solution
Molecule: CCCCCCCCCCCCO[C@@H]1O[C@H](CO)[C@@H](O[C@H]2O[C@H](CO)[C@@H](O)[C@H](O)[C@H]2O)[C@H](O)[C@H]1O [n-Dodecyl-beta-D-maltoside]

- Dissolution in aqueous medium (2 ml) [1, 9]: Precipitation
Molecule: Sodium lauroyl sarcosinate

Molecule: O=C([O-])c1ccccc1O.[Na+] [Sodium salicylate]
- Dissolution in aqueous medium (2 ml) [1, 9]: Clear solution

- Dissolution in aqueous medium (2 ml) [1, 9]: Clear solution
Molecule: Methyl-beta-cyclodextrin

Molecule: Human growth hormone [hGH]
- AUC(0-t) [3, 10]: 7630 ± 471 ng·min/mL
- Cmax [3, 10]: 44 ng/mL
- Tmax [3, 10]: 30 min
- F ([3]; s.c. (reference)): 100 ± 6%

Molecule: C[C@H](CCC(=O)O)[C@H]1CC[C@H]2[C@@H]3[C@H](O)C[C@@H]4C[C@H](O)CC[C@]4(C)[C@H]3C[C@H](O)[C@]12C [Cholic acid]
- Dissolution in aqueous medium (2 ml) [2]: Precipitation

- Dissolution in aqueous medium (2 ml) [1, 11]: Clear solution
- Dissolution in aqueous medium (2 ml) [1, 9]: Precipitation
- Dissolution in aqueous medium (2 ml) [1, 12]: Clear solution
- Dissolution in aqueous medium (2 ml) [2]: Precipitation
Molecule: CCCCCCCC(=O)[O-].[Na+] [Sodium caprylate]

- Dissolution in aqueous medium (2 ml) [1, 9]: Clear solution
- Dissolution in aqueous medium (2 ml) [2]: Clear solution
Molecule: O=C(O)CN(CCN(CC(=O)O)CC(=O)O)CC(=O)O [EDTA, ethylenediaminetetraacetic acid]

Molecule: CCCCCCCCCCCC(=O)OC(CC(=O)O)C[N+](C)(C)C.[Cl-] (stereo not drawn) [Lauroyl carnitine HCl]
- Dissolution in aqueous medium (2 ml) [2]: Clear solution

Molecule: CN[C@H](CC(C)C)C(=O)N[C@H]1C(=O)N[C@@H](CC(N)=O)C(=O)N[C@H]2C(=O)N[C@H]3C(=O)N[C@H](C(=O)N[C@H](C(=O)O)c4cc(O)cc(O)c4-c4cc3ccc4O)[C@H](O)c3ccc(c(Cl)c3)Oc3cc2cc(c3O[C@@H]2O[C@H](CO)[C@@H](O)[C@H](O)[C@H]2O[C@H]2C[C@](C)(N)[C@H](O)[C@H](C)O2)Oc2ccc(cc2Cl)[C@H]1O [Vancomycin, Vancomycin hydrochloride]
- AUC(0-t) [4, 13]: 11000 ng·h/mL
- Cmax [4, 13]: 8800 ± 300 ng/mL
- AUC(0-t) [4, 14]: 3000 ng·h/mL
- Cmax [4, 14]: 2400 ± 200 ng/mL
- bioavailability ([4]; Sprague Dawley, rat, plasma, vancomycin 20 mg/kg into ileum, lauroyl carnitine 50 mg/ml, CuSO4 1 mg/ml, sodium ascorbate 250 mg/ml, vs i.v., read-out: F (absolute bioavailability)): 8 ± 0.4%
- F ([4]; vancomycin 5 mg/kg i.v. (reference)): 100 ± 7%
- bioavailability in comparison with published F values after oral administration, in words ([4]; vancomycin formulation with lauroyl carnitine, CuSO4, sodium ascorbate): increased markedly its bioavailability
- oral bioavailability [5]: ~0.1%

Molecule: CCCCCCCCCCCCCCCC(=O)N[C@@H](CCC(=O)NCCCC[C@H](NC(=O)[C@H](C)NC(=O)[C@H](C)NC(=O)[C@H](CCC(N)=O)NC(=O)CNC(=O)[C@H](CCC(=O)O)NC(=O)[C@H](CC(C)C)NC(=O)[C@H](Cc1ccc(O)cc1)NC(=O)[C@H](CO)NC(=O)[C@H](CO)NC(=O)[C@@H](NC(=O)[C@H](CC(=O)O)NC(=O)[C@H](CO)NC(=O)[C@@H](NC(=O)[C@H](Cc1ccccc1)NC(=O)[C@@H](NC(=O)CNC(=O)[C@H](CCC(=O)O)NC(=O)[C@H](C)NC(=O)[C@@H](N)Cc1cnc[nH]1)[C@@H](C)O)[C@@H](C)O)C(C)C)C(=O)N[C@@H](CCC(=O)O)C(=O)N[C@@H](Cc1ccccc1)C(=O)N[C@H](C(=O)N[C@@H](C)C(=O)N[C@@H](Cc1c[nH]c2ccccc12)C(=O)N[C@@H](CC(C)C)C(=O)N[C@H](C(=O)N[C@@H](CCCNC(=N)N)C(=O)NCC(=O)N[C@@H](CCCNC(=N)N)C(=O)NCC(=O)O)C(C)C)[C@@H](C)CC)C(=O)O [Liraglutide, liraglutide]
- intestinal absorption of liraglutide (plasma levels, FIG. 1), in words ([6]; LCC 20 mg/ml + CuSO4 1 mg/ml + sodium ascorbate 40 mg/ml, compared with LCC alone): substantially increased the intestinal absorption
- liraglutide absorption (plasma levels, FIG. 1), in words ([6]; LCC 20 mg/ml + ZnSO4 1 mg/ml + glutathione 40 mg/ml, compared with LCC alone and with the Cu2+ composition): improved liraglutide absorption albeit less pronounced

Molecule: C[C@H](CCC(=O)[O-])[C@H]1CC[C@H]2[C@@H]3[C@H](O)C[C@@H]4C[C@H](O)CC[C@]4(C)[C@H]3C[C@H](O)[C@]12C.[Na+] [Sodium cholate]
- Dissolution in aqueous medium (2 ml) [2]: Precipitation

Molecule: CCCCCCCCCCCC(=O)OC(CC(=O)O)C[N+](C)(C)C.[Cl-] (stereo not drawn) [Lauroyl carnitine]
- Dissolution in aqueous medium (2 ml) ([1]; CuSO4 1 mg/ml, glutathione 10 mg/ml): Clear solution
- Dissolution in aqueous medium (2 ml) [1, 9]: Clear solution

Molecule: C[C@@H](O)[C@@H]1NC(=O)[C@H](CCCCN)NC(=O)[C@@H](Cc2c[nH]c3ccccc23)NC(=O)[C@H](Cc2ccccc2)NC(=O)[C@@H](NC(=O)[C@H](N)Cc2ccccc2)CSSC[C@@H](C(=O)N[C@H](CO)[C@@H](C)O)NC1=O [Octreotide]
- Cmax [7, 15]: 25.8 ± 14.2 ng/mL
- AUC(0-t) [7, 15]: 25.1 ng·h/mL
- Cmax [7, 16]: 154 ± 29.8 ng/mL
- AUC(0-t) [7, 16]: 167 ng·h/mL
- F rel ([7]; Sprague Dawley, rat, plasma, octreotide 0.92 mg/kg ileum, lauroyl carnitine chloride 30 mg/ml, CuSO4 1 mg/ml, sodium ascorbate 30 mg/ml, TRIS 22.5 mg/ml, vs s.c.): 16.3 ± 7.8%
- F ([7]; octreotide 1 mg/kg s.c. (reference)): 100 ± 18.3%
- bioavailability, in words ([7]; octreotide formulation with copper(II) salt, sodium ascorbate, lauroyl carnitine chloride): markedly increased bioavailability
- oral bioavailability [5]: less than 1%

- Dissolution in aqueous medium (2 ml) [1, 11]: Clear solution
- Dissolution in aqueous medium (2 ml) [1, 9]: Precipitation
- Dissolution in aqueous medium (2 ml) [1, 12]: Clear solution
- Dissolution in aqueous medium (2 ml) [2]: Precipitation
Molecule: CCCCCCCCCC(=O)[O-].[Na+] [Sodium caprate]

- Dissolution pH in 5 ml Aqua purificata ([8]; CuSO4 10 mg, citric acid 10 mg): 2.6
- Dissolution pH in 5 ml Aqua purificata ([8]; CuSO4 10 mg, no absorption enhancer): 4.7
- Dissolution pH in 5 ml Aqua purificata ([8]; ZnSO4 10 mg, citric acid 10 mg): 2.7
- Dissolution pH in 5 ml Aqua purificata ([8]; ZnSO4 10 mg, no absorption enhancer): 5.5
Molecule: NC(=O)CC[C@@H]1NC(=O)[C@H](Cc2ccccc2)NC(=O)[C@H](Cc2ccc(O)cc2)NC(=O)CCSSC[C@@H](C(=O)N2CCC[C@H]2C(=O)N[C@H](CCCN=C(N)N)C(=O)NCC(N)=O)NC(=O)[C@H](CC(N)=O)NC1=O [Desmopressin, Desmopressin acetate]
